Like-named read-outs stand apart in the source and are kept apart here.
Tests used:
Haemonchus contortus = assay: In vitro test against sheep intestinal nematode; conditions: read-out: worms killed
From the text: In in vitro tests against the sheep intestinal nematode Haemonchus contortus, A83543A killed 30% of the worms at a concentration of 100 ppm.

[1] = system: mixture of soybean loopers (75%) and fall armyworm (25%); assay: Field trial, soybean loopers and fall armyworm on soybean; format: in vivo
Description: A83543A was evaluated in field trials.

adult stable fly (ASF) = assay: Guinea pig systemic test, adult stable fly; format: in vivo, Stomoxys calcitrans
Description: Adult guinea pigs are used in this test system. The compounds to be tested are dissolved in aqueous polyvinyl pyrrolidone or in polyethylene glycol 200, and an appropriate amount of the solution is administered either orally or by intraperitoneal injection.
(§1) Blood is drawn from the guinea pigs at 30 minutes except as noted, and the samples of blood are centrifuged. Dental wicks are saturated with the blood serum, and then exposed in Petri dishes to adult stable flies; blow fly larvae are exposed in test tubes. After 24 and 48 hours, the insects are examined, and the number of dead are counted. The results of the tests are recorded as the percent of the insects which are killed.

[2] = system: neonate CBW (cotton bollworm) larvae; assay: Surface-treated diet test against neonate CBW larvae; format: in vivo, Heliothis zea
Description: (§2) Each test compound was formulated by dissolving the compound in an acetone/alcohol (1:1) mixture containing 23 g of "Toximul R" (sulfonate/nonionic emulsifier blend) and 13 g of "Toximul S" (sulfonate/nonionic emulsifier blend) per liter. These mixtures were then diluted with water to give the indicated concentrations.
(§3) Additional insects were evaluated using similar formulations and evaluation procedures, with the exceptions noted.
(§4) After standard exposure periods, percent mortality was evaluated. The following abbreviations are used:
^b Mean of two replicates tested
^d Diet is surface treated with A83543A, allowed to dry and infested

adult stable fly = assay: Insecticidal assay in blood of sheep challenged with Haemonchus contortus, adult stable fly; format: in vivo; set-up: mortality: dose or concentration left out as unconfirmed; conditions: Stomoxys calcitrans, read-out: Percent Insecticide Mortality; for mortality at 1 mg/kg: iv, 1 × 1 mg/kg IV
Description: as §1
Tests are carried out in sheep using the test method described supra in the Guinea Pig Test description. […]
^b Amount (mg/kg) times number of doses administered
^c Times postadministration at which blood is drawn

[3] = system: SAW (Southern armyworm) larvae; assay: Foliar/bushbean test against SAW larvae; format: in vivo; conditions: Spodoptera eridania, foliar; for inhibition at 0.5 ppm: 0.50 ppm
Description: as §2
[…] Other plants in the same treatment pot were left uninfested. The leaves were then sprayed with 5 mL of test solution using a DeVilbiss atomizing sprayer at 10 psi. Both surfaces of the leaves were covered until runoff and then allowed to dry for one hour. Two uninfested leaves were then excised and placed into a Petri dish containing Southern armyworm (Spodoptera eridania Cramer).
as §3, §4
^a Days between treatment and observation
^b Mean of replicates tested

CA (cotton aphid) = assay: Greenhouse test against CA; format: in vivo; conditions: Aphis gossypii, squash
Description: as §2
Two-spotted spider mites (Tetranychus urticae Koch) and cotton or melon aphids (Aphis gossypii Glover) were introduced on squash cotyledons and allowed to establish on both leaf surfaces. Other plants in the same treatment pot were left uninfested. The leaves were then sprayed with 5 mL of test solution using a DeVilbiss atomizing sprayer at 10 psi. Both surfaces of the leaves were covered until runoff and then allowed to dry for one hour. Two uninfested leaves were then excised and placed into a Petri dish containing Southern armyworm (Spodoptera eridania Cramer).
After standard exposure periods, percent mortality was evaluated.

[4] = 0 h, Day 0, A, 24-hour exposure
[5] = 0 h, Day 0, A, 48-hour exposure
[6] = 24 h, Day 1, A, 24-hour exposure
[7] = 24 h, Day 1, A, 48-hour exposure
[8] = 48 h, Day 2, A, 24-hour exposure
[9] = 72 h, Day 3, A, 24-hour exposure
[10] = 72 h, Day 3, A, 48-hour exposure
[11] = 120 h, Day 5, A, 48-hour exposure

CC[C@H]1CCC[C@H](O[C@H]2CC[C@H](N(C)C)[C@@H](C)O2)[C@@H](C)C(=O)C2=C[C@@H]3[C@@H](C=C[C@@H]4C[C@@H](O[C@@H]5O[C@@H](C)[C@H](OC)[C@@H](OC)[C@H]5OC)C[C@@H]34)[C@@H]2CC(=O)O1 [A83543A]
killing at 100 ppm (Haemonchus contortus): 30% | activity in field trials [1]: showed activity | % Activity ASF (adult stable fly (ASF); 10 mg/kg IP, bled 30 min): 0% | % Activity ASF (adult stable fly (ASF); 10 mg/kg IP, bled 5 hr): 0% | % Activity ASF (adult stable fly (ASF); 10 mg/kg IP, bled 24 hr): 0% | % Activity ASF (adult stable fly (ASF); 20 mg/kg IP, bled 30 min): 0% | % Activity ASF (adult stable fly (ASF); 20 mg/kg IP, bled 5 hr): 0% | % Activity ASF (adult stable fly (ASF); 20 mg/kg IP, bled 24 hr): 0% | % Activity ASF (adult stable fly (ASF); 30 mg/kg IP, bled 30 min): 50% | % Activity ASF (adult stable fly (ASF); 30 mg/kg IP, bled 5 hr): 0% | % Activity ASF (adult stable fly (ASF); 30 mg/kg IP, bled 24 hr): 0% | % Activity ASF (adult stable fly (ASF); 50 mg/kg IP, bled 30 min): 100% | % Activity ASF (adult stable fly (ASF); 50 mg/kg IP, bled 5 hr): 40% | % Activity ASF (adult stable fly (ASF); 50 mg/kg IP, bled 24 hr): 30% | % Activity ASF (adult stable fly (ASF); 50 mg/kg oral, bled 5 hr): 60% | % Activity ASF (adult stable fly (ASF); 50 mg/kg oral, bled 24 hr): 0% | mortality at 10 mg/kg (adult stable fly (ASF); Stomoxys calcitrans, in Cavia porcellus, 10 mg/kg IP): 0% | mortality at 20 mg/kg (adult stable fly (ASF); Stomoxys calcitrans, in Cavia porcellus, 20 mg/kg IP): 0% | mortality at 30 mg/kg (adult stable fly (ASF); Stomoxys calcitrans, in Cavia porcellus, 30 mg/kg IP): 50% | mortality at 50 mg/kg (adult stable fly (ASF); Stomoxys calcitrans, in Cavia porcellus, 50 mg/kg IP): 100% | mortality at 50 mg/kg (adult stable fly (ASF); Stomoxys calcitrans, in Cavia porcellus, 50 mg/kg OR (oral), 5-hr blood sample): 60% | inhibition at 0.5 ppm ([2]; 72 h, 3 days, 0.50 ppm): 15% | inhibition at 1 ppm ([2]; 72 h, 3 days): 45% | inhibition at 5 ppm ([2]; 72 h, 3 days): 100% | inhibition at 10 ppm ([2]; 72 h, 3 days): 100% | inhibition at 50 ppm ([2]; 72 h, 3 days): 100% | inhibition at 1 ppm ([2]; 96 h, 4 days): 30% | inhibition at 5 ppm ([2]; 96 h, 4 days): 100% | inhibition at 10 ppm ([2]; 96 h, 4 days): 100% | inhibition at 50 ppm ([2]; 96 h, 4 days): 100% | inhibition at 100 ppm ([2]; 96 h, 4 days, 100.00 ppm): 100% | mortality (adult stable fly; [4]): 0% | mortality (adult stable fly; [5]): 0% | mortality (adult stable fly; 5 h, A, 24-hour exposure): 10% | mortality (adult stable fly; 24 h, 35 min, A, 24-hour exposure): 10% | mortality (adult stable fly; 24 h, 5 hr, A, 24-hour exposure): 10% | mortality (adult stable fly; 24 h, Day 0, A, 24-hour exposure): 0% | mortality (adult stable fly; [6]): 10% | mortality at 50 mg/kg (adult stable fly; [6]): 0% | mortality (adult stable fly; [7]): 90% | mortality at 50 mg/kg (adult stable fly; [7]): 60% | mortality at 2 mg/kg (adult stable fly; 48 h, 25 × 2 mg/kg IR, Day 2, A, 24-hour exposure): 20% | mortality (adult stable fly; [8]): 20% | mortality (adult stable fly; [9]): 0% | mortality (adult stable fly; [10]): 70% | mortality (adult stable fly; [11]): 30% | mortality at 50 mg/kg (adult stable fly; ip, 0 h, Day 0, A, 48-hour exposure): 20% | mortality at 50 mg/kg (adult stable fly; ip, 35 min, A, 48-hour exposure): 0% | mortality at 50 mg/kg (adult stable fly; ip, 5 h, A, 48-hour exposure): 10% | mortality at 50 mg/kg (adult stable fly; ip, 24 h, 35 min, A, 24-hour exposure): 0% | mortality at 50 mg/kg (adult stable fly; ip, 24 h, 5 hr, A, 24-hour exposure): 0% | mortality at 50 mg/kg (adult stable fly; ip, 24 h, Day 0, A, 24-hour exposure): 0% | mortality at 50 mg/kg (adult stable fly; ip, 24 h, Day 1, A, 24-hour exposure): 0% | mortality at 50 mg/kg (adult stable fly; ip, 24 h, Day 1, A, 48-hour exposure): 0% | mortality at 50 mg/kg (adult stable fly; ip, 24 h, Day 2, A, 24-hour exposure): 10% | mortality at 50 mg/kg (adult stable fly; ip, 24 h, Day 3, A, 24-hour exposure): 0% | mortality at 50 mg/kg (adult stable fly; ip, 24 h, Day 4, A, 24-hour exposure): 10% | mortality at 50 mg/kg (adult stable fly; ip, 24 h, Day 5, A, 24-hour exposure): 0% | mortality at 50 mg/kg (adult stable fly; ip, 48 h, Day 2, A, 48-hour exposure): 30% | mortality at 50 mg/kg (adult stable fly; ip, 72 h, Day 3, A, 48-hour exposure): 10% | mortality at 50 mg/kg (adult stable fly; ip, 96 h, Day 4, A, 48-hour exposure): 20% | mortality at 50 mg/kg (adult stable fly; ip, 120 h, Day 5, A, 48-hour exposure): 0% | mortality at 1 mg/kg (adult stable fly; [4]): 0% | mortality at 1 mg/kg (adult stable fly; [5]): 0% | mortality at 1 mg/kg (adult stable fly; 35 min, 35 min, A, 24-hour exposure): 10% | mortality at 1 mg/kg (adult stable fly; 35 min, 35 min, A, 48-hour exposure): 10% | mortality at 1 mg/kg (adult stable fly; 5 h, 5 hr, A, 24-hour exposure): 0% | mortality at 1 mg/kg (adult stable fly; 5 h, 5 hr, A, 48-hour exposure): 20% | mortality at 1 mg/kg (adult stable fly; [6]): 0% | mortality at 1 mg/kg (adult stable fly; [7]): 0% | mortality at 1 mg/kg (adult stable fly; [8]): 0% | mortality at 1 mg/kg (adult stable fly; 48 h, Day 2, A, 48-hour exposure): 0% | mortality at 1 mg/kg (adult stable fly; [9]): 0% | mortality at 1 mg/kg (adult stable fly; [10]): 0% | mortality at 1 mg/kg (adult stable fly; 96 h, Day 4, A, 24-hour exposure): 0% | mortality at 1 mg/kg (adult stable fly; 96 h, Day 4, A, 48-hour exposure): 0% | mortality at 1 mg/kg (adult stable fly; 120 h, Day 5, A, 24-hour exposure): 0% | mortality at 1 mg/kg (adult stable fly; [11]): 0% | inhibition at 1 ppm ([3]; 72 h, neonate, 3 days): 10% | inhibition at 5 ppm ([3]; 72 h, neonate, 3 days): 40% | inhibition at 10 ppm ([3]; 72 h, neonate, 3 days): 100% | inhibition at 50 ppm ([3]; 72 h, neonate, 3 days): 100% | inhibition at 100 ppm ([3]; 72 h, neonate, 3 days): 100% | inhibition at 10 ppm ([3]; 96 h, fifth instar, 4 days): 0% | inhibition at 50 ppm ([3]; 96 h, fifth instar, 4 days): 0% | inhibition at 0.5 ppm ([3]; 96 h, neonate, 4 days): 0% | inhibition at 1 ppm ([3]; 96 h, neonate, 4 days): 66.7% | inhibition at 5 ppm ([3]; 96 h, neonate, 4 days): 100% | inhibition at 10 ppm ([3]; 96 h, neonate, 4 days): 100% | inhibition at 50 ppm ([3]; 96 h, neonate, 4 days): 100% | inhibition at 1 ppm ([3]; 96 h, second instar, 4 days): 0% | inhibition at 5 ppm ([3]; 96 h, second instar, 4 days): 0% | inhibition at 10 ppm ([3]; 96 h, second instar, 4 days): 80% | inhibition at 50 ppm ([3]; 96 h, second instar, 4 days): 80% | inhibition at 100 ppm ([3]; 96 h, second instar, 4 days): 100% | inhibition at 0.5 ppm ([3]; 96 h, third instar, 4 days): 0% | inhibition at 1 ppm ([3]; 96 h, third instar, 4 days): 0% | inhibition at 5 ppm ([3]; 96 h, third instar, 4 days): 40% | inhibition at 10 ppm ([3]; 96 h, third instar, 4 days): 100% | inhibition at 50 ppm ([3]; 96 h, third instar, 4 days): 100% | inhibition at 25 ppm (CA (cotton aphid); 25 ppm, second series): 0% | inhibition at 50 ppm (CA (cotton aphid); first series): 0% | inhibition at 50 ppm (CA (cotton aphid); second series): 40% | inhibition at 100 ppm (CA (cotton aphid); first series): 0% | inhibition at 100 ppm (CA (cotton aphid); second series): 80%
